Data set [1] can be described thus: Body weight, ISP induced myocardial infarction study. It counts as in vivo, Sprague-Dawley rats. The note with it: Carvedilol 2 mg/kg + ISP, Mean ± SEM. An excerpt: (§1) Animals: 35 male Sprague-Dawley rats of 150-200 g body weight were selected for the study. Animals were housed in individual polycarbonate cages in a well-ventilated room under an ambient temperature of 23±2 degree C. and 40-65% relative humidity, with artificial photoperiod 12-h light/12-h dark cycle. They were provided with standard rodent pellet diet (Nutrilab Rodent, Tetragon Chemie, India) and purified water ad libitum (RIOS, USA). Experimental animals were acclimatized for 7 days to the laboratory conditions prior to experimentation. The study protocol was approved by Institutional Animal Ethical Committee (IAEC).
(§2) Experimental groups and design: Rats were randomized into 5 groups based on the body weight. ISP (120 mg/kg) was injected subcutaneously to rats on 19th and 21st day to induce experimental myocardial infarction. Test drug was orally administered throughout the study. • Group I (Normal control): 0.5% CMC • Group II (Positive control): 0.5% CMC+ISP (120 mg/kg) • Group III (Standard): Carvedilol (2 mg/kg/day, p.o)+ISP (120 mg/kg, s.c.) • Group IV (Low dose): Test drug (50 mg/kg/day, p.o)+ISP (120 mg/kg, s.c.) • Group V (High dose): Test drug (100 mg/kg/day, p.o)+ISP (120 mg/kg, s.c.)
(§3) The change in body weight was recorded every week. At the end of the experiment, blood was collected and the plasma was separated for biochemical investigation. The animals were euthanized and the organs (heart, Kidney and adrenals) were dissected out and weighed. Heart homogenate was used for further analysis and LV was separated for the analysis of apoptotic marker gene expression as depicted in the various examples hereunder.

The nature of data set [2]: Organ weight, ISP induced myocardial infarction study. It counts as in vivo, Sprague-Dawley rats. The following applies: Carvedilol 2 mg/kg + ISP.
Excerpt: as §1, §2, §3

As for `COc1ccccc1OCCNCC(O)COc1cccc2[nH]c3ccccc3c12` (centres unmarked) [Carvedilol], the Body weight in data set [1] (0th day) is 211.00 ± 1.70 g; in data set [1] (7th day) it was 210.57 ± 3.22 g; in data set [1] (14th day), 218.43 ± 4.37 g; in data set [1] (21st day), 216.43 ± 1.58 g. For the same compound, the “Organ weight: Heart, percent in brackets (compared with Positive control)” value in data set [2] stood at 13.1%. The “Organ weight: Adrenals” value in data set [2] (Mean ± SEM) is on record as 0.02 ± 0.00 g. Also, the “Organ weight: Heart” value in data set [2] (Mean ± SEM) is 0.44 ± 0.07 g. Further, the “Organ weight: Kidney” value in data set [2] (Mean ± SEM) was 0.68 ± 0.10 g.

The values above are taken from patent US10653741B2, “Herbo-mineral formulation for the treatment of cardio vascular diseases and method of preparation thereof” (Muniyal Ayurvedic Research Centre, priority 2017, dated 2020).
